According to PMC3266923, “Augmenter of Liver Regeneration (alr) Promotes Liver Outgrowth during Zebrafish Hepatogenesis” (PLoS ONE, 2012):

What was measured:
[1] = molecular target: T1, zebrafish Alr (Danio rerio, UniProt A4QNU9); experiment: Ellman's reagent (free thiol) time course; format: biochemical; settings: room temperature
T1 construct: gene gfer; full-length ORF (191 residues) in pET28b, N-terminal His-tag, expressed in E. coli BL21-DE3, Ni-NTA purified under native condition; about 23 kDa monomer, disulfide-linked dimer

[2] = molecular target: T2, zebrafish Alr (Danio rerio, UniProt A4QNU9, C131S); experiment: UV-visible absorption spectrum of purified protein; format: binding; settings: 15 uM protein, free FAD as reference; FAD co-purified from E. coli
T2 construct: gene gfer; full-length ORF (191 residues) in pET28b, N-terminal His-tag, expressed in E. coli BL21-DE3, Ni-NTA purified under native condition; about 23 kDa monomer, disulfide-linked dimer

[3] = molecular target: T1, zebrafish Alr; experiment: UV-visible absorption spectrum of purified protein; format: binding; settings: 15 uM protein, free FAD as reference; FAD co-purified from E. coli

T1 sequence (A4QNU9 1-191): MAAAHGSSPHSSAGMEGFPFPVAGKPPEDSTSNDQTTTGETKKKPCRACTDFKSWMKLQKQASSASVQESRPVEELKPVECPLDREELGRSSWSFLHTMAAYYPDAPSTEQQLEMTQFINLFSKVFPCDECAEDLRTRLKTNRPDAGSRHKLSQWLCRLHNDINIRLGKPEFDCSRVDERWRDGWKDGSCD
T2 sequence (A4QNU9 1-191 C131S): as the sequence (A4QNU9 1-191) above, with C131S counted along it

Structure (SMILES) | Ellman's reagent (free thiol) time course [1] | UV-visible absorption spectrum of purified protein [2] | UV-visible absorption spectrum of purified protein [3]
OC(CS)C(O)CS (stereo not drawn) [DTT] | Zebrafish Alr oxidized DTT efficiently, while Alr^C131S completely lost this activity |  | 
Cc1cc2nc3c(=O)[nH]c(=O)nc-3n(C[C@H](O)[C@H](O)[C@H](O)COP(=O)(O)OP(=O)(O)OC[C@H]3O[C@@H](n4cnc5c(N)ncnc54)[C@H](O)[C@@H]3O)c2cc1C [FAD] |  | wild type Alr protein and mutant Alr^C131S protein are characteristic of the FAD moiety | Zebrafish Alr also binds FAD as determined by spectroscopic absorption
